Laboratory results as given in article PMC5333395, “Assessing histone demethylase inhibitors in cells: lessons learned” (Epigenetics & Chromatin, 2017).
Read-outs that look alike come from different tables or passages of the source. Each block holds one molecule with its values, some of them ahead of it.

Legend:
HeLa cells [1] = assay: Hoechst 33342/Yo-Pro 3/Annexin triple staining, live cell death pattern analysis; type: cell-based
Method: Cells exposed to the inhibitors for 24 h were stained with Hoechst 33342 (1 µM), Yo-Pro 3 (1 µM) and Annexin V (0.3 μL per well) for 1 h. Cellular fluorescence was measured using the IN Cell 6000 (GE) using the following set-up parameters: bright-field transmitted light at 50% for 15 ms; Hoechst 33342 was excited by 35-ms exposure(Ex 360–400 nm/Em 410–480 nm), Yo-Pro 3 by 35-ms exposure(Ex 560–580 nm/Em 650–760 nm) and Annexin V (Alexa 488) by 45-ms exposure(Ex 460–490 nm/Em 500–550 nm). All the generated data were analysed using the IN Cell Analyser software, and three categories were distinguished: healthy cells, apoptosis and necrosis—calculated as percentage of each class for every concentration used.

H3K4me3 mark = assay: IF assay of histone mark in HeLa cells treated with cytotoxic agents
H3K27me3 mark = assay: as above
H3K9me2 mark = assay: as above
H3K36me2 mark = assay: as above
HeLa cells [2] = assay: Cell number in the high-content screen (DAPI staining) as measure of toxicity; conditions: concentrations used in the IF assays
Excerpt: (§2) Immunofluorescence images of 20 fields (if not indicated otherwise) were captured through a 20× objective on a PerkinElmer Operetta or the GE IN Cell 6000 using the appropriate filters and light sources for exciting DAPI, Alexafluor 488, and Alexafluor 568 or Alexafluor 647. […] From the DAPI channel, a binary mask was created to exclude individual nuclei smaller than 100 µm^2 and those overlapping the edge of the field.

HeLa cells [3] = test system: HeLa cells
Excerpt: as §2

KDM5B [4] = biological target: T1, KDM5B (Homo sapiens, UniProt Q9UGL1); assay: High-content immunofluorescence (IF) assay, overexpressed full-length FLAG-tagged KDM in HeLa cells; type: cell-based; design: transiently transfecting the full-length FLAG-tagged demethylase (WT) into cells; expressed in transfected cells; host or cells: HeLa; conditions: for Effect on H3K4me3 mark in KDM5B IF assay, in words: HeLa cells transfected with KDM5B; for EC50: HeLa cells overexpressing WT KDM5B, H3K4me3 mark, 24 h, read-out: KDM5B, in cells, EC50 by IF assay (head: IC50)
Method: HeLa cells (ATCC) were cultured at 37 °C and 5% CO2 in Minimal Essential Media—Eagle (Sigma-Aldrich, UK) supplemented with 10% heat-inactivated foetal calf serum (FCS) (Gibco, UK), and 1% L-glutaMAX (Gibco, UK) in T75 flasks (Sarstedt, UK) and passaged regularly with TrypLE (Life Technologies, UK) before cells reached confluence. On day 0, 7000 cells per well were plated on a 96-well clear bottom CellCarrier plate (PerkinElmer, UK). The next day the cells were transfected with Lipofectamine 3000 (ThermoFisher Scientific, UK) following the manufacturer’s instructions. Briefly, 0.1 µg of plasmid DNA (encoding for the respective demethylase) and 0.15 µL of Lipofectamine 3000 were diluted in separate tubes containing 5 µL OptiMEM. 0.15 µL of P3000 was added to the tube with the DNA. The two solutions were then mixed gently and allowed to incubate for 5 min at room temperature. Next, the DNA-lipid complex was added to the cells for 4 h at 37 °C and 5% CO2.
Compound dilutions were made in a 96-well PCR plate (Starlab, UK). The culture medium was supplemented with 0.4% DMSO so that the solvent concentration was maintained throughout. Compounds were serially diluted at a 1:2 or 1:3 dilution ratio. Next, the cell culture plate was removed from the incubator and the medium was gently aspirated and replaced with the fresh medium containing diluted compounds.
Then cells were rinsed once with PBS and blocked for 30 min at room temperature using 3% v/v foetal calf serum diluted in PBS.

KDM5B [5] = biological target: T1, KDM5B; design: method as in PMID 26741168; conditions: AlphaScreen; in vitro biochemical profiling previously reported; cited from earlier work
KDM4C = biological target: T2, KDM4C (Homo sapiens, UniProt Q9H3R0); assay: AlphaScreen in vitro demethylase assay; type: biochemical; conditions: in vitro KDM assay, Table S3; * likely false positive due to colour quenching; read-out: KDM4C IC50
T2 sequence (Q9H3R0 1-1056): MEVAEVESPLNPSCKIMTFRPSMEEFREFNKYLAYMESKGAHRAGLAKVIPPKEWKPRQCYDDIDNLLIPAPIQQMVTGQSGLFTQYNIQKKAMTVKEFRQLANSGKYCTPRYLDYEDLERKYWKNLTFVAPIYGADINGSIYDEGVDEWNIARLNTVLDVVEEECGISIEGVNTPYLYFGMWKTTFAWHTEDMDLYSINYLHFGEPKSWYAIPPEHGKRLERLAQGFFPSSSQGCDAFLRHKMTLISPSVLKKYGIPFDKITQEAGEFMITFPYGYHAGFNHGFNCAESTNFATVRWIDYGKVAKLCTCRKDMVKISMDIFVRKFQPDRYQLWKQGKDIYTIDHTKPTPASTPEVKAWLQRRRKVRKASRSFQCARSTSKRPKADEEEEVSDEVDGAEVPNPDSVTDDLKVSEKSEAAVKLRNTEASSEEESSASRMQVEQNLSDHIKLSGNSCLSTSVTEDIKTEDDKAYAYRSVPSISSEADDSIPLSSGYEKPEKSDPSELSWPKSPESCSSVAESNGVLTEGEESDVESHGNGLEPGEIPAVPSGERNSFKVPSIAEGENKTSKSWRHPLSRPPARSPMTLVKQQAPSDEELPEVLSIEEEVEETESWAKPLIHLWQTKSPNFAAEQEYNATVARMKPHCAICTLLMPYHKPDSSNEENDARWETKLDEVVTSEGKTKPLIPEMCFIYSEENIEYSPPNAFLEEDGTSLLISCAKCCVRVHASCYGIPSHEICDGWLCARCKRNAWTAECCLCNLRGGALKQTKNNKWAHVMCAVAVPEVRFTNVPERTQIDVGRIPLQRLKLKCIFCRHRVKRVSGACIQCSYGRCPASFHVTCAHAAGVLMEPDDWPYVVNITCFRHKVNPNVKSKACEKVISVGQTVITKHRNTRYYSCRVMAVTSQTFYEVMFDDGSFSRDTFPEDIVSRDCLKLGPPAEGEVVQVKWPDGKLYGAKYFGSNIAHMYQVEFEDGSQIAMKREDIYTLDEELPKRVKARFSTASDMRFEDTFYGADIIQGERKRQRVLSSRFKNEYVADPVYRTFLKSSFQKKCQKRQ
Method: (§1) IC50 values were determined as previously described. The following amendments were made to the protocol for carrying out 2-OG competition assays.

KDM5B [6] = biological target: T1, KDM5B; assay: AlphaScreen in vitro demethylase assay; type: biochemical
Method: as §1

KDM6B = KDM6B (Homo sapiens, UniProt O15054); assay: AlphaScreen in vitro demethylase assay; type: biochemical; conditions: in vitro KDM assay, Table S3; * likely false positive due to colour quenching; read-out: KDM6B IC50
Method: as §1

KDM3A = biological target: T3, KDM3A (Homo sapiens, UniProt Q9Y4C1); assay: AlphaScreen in vitro demethylase assay; type: biochemical; conditions: IC50 ± SD (number of replicates)
T3 sequence (Q9Y4C1 1-1321): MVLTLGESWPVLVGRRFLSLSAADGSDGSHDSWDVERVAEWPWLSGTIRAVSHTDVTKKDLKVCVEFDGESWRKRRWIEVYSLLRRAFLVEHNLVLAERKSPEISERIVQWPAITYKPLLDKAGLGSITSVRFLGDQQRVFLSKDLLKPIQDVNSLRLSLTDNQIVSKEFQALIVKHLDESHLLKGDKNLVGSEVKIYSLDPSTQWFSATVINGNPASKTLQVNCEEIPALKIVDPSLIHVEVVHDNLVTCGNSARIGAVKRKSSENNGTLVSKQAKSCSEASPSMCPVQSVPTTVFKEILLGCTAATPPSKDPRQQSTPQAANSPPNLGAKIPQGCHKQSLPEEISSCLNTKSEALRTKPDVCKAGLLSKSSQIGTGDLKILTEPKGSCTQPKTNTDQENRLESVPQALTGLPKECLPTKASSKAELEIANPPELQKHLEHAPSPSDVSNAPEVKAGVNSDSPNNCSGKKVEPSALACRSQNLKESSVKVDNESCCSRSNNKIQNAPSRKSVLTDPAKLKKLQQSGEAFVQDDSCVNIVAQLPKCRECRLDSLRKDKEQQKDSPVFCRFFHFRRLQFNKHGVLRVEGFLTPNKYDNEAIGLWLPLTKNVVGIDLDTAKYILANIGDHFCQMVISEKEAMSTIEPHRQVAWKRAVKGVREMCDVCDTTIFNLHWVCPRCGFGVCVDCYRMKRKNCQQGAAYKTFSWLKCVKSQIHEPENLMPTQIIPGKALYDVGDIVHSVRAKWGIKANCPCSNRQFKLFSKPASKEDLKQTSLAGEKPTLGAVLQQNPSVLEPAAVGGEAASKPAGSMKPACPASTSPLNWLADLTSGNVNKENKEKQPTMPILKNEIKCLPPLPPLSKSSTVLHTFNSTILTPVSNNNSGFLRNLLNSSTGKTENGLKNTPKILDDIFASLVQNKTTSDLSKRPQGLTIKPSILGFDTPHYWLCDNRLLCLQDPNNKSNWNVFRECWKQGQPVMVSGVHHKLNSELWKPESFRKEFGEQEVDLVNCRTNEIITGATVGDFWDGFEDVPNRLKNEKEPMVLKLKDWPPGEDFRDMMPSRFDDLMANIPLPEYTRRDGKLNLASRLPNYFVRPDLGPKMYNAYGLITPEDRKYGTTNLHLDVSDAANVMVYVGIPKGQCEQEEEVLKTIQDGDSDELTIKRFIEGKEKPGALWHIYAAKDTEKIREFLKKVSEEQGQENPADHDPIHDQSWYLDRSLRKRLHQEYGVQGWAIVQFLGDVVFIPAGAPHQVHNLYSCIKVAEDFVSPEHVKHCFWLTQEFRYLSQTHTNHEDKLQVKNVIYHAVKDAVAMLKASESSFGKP
Method: as §1

KDM5C = KDM5C (Homo sapiens, UniProt P41229); assay: AlphaScreen in vitro demethylase assay; type: biochemical; conditions: IC50 ± SD (number of replicates)
Method: as §1

[7] = HeLa cells, 24 h, dose-dependent
[8] = in vitro KDM assay, Table S3, * likely false positive due to colour quenching, read-out: KDM5B IC50

T1 sequence (Q9UGL1 whole entry): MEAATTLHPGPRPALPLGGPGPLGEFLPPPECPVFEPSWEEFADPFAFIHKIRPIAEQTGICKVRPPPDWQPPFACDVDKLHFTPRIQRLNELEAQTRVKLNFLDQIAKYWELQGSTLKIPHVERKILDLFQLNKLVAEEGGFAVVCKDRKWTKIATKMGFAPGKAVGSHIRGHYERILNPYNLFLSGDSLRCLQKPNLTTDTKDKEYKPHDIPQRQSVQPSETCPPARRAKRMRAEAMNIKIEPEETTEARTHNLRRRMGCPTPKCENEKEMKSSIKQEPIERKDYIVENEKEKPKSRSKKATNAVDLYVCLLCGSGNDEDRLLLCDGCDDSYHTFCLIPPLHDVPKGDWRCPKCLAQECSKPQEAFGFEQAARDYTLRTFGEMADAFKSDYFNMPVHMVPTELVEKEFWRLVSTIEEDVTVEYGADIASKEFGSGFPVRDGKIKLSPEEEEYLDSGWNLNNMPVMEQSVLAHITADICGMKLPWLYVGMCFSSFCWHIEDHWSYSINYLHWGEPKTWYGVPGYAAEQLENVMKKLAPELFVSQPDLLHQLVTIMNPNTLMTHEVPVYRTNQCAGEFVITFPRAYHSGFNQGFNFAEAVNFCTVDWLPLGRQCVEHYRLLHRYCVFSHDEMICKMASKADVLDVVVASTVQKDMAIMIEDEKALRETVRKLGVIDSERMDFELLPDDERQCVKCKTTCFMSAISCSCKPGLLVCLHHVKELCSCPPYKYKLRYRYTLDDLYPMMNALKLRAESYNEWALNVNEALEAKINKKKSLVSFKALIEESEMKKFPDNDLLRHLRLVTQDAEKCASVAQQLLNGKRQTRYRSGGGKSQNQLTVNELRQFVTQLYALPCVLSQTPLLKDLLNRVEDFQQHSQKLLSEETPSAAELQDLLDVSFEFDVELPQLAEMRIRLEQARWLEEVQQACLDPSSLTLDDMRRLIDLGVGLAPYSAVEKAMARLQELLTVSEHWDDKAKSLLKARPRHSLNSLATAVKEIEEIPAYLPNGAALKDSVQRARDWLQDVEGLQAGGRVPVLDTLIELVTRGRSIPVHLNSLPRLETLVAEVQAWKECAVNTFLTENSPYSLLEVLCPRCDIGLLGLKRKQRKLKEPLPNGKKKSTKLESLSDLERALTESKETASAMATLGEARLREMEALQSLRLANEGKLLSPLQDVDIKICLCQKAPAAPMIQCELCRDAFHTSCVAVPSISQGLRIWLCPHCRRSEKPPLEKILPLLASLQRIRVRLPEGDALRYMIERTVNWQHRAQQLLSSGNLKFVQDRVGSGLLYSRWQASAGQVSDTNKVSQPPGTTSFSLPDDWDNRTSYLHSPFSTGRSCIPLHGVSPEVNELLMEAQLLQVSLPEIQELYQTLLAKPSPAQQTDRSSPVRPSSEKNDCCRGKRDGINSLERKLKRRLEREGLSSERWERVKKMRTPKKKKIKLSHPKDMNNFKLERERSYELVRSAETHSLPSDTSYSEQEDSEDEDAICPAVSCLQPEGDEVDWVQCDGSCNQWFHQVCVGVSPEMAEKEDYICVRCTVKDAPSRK
KDM6B, sequence (O15054 whole entry): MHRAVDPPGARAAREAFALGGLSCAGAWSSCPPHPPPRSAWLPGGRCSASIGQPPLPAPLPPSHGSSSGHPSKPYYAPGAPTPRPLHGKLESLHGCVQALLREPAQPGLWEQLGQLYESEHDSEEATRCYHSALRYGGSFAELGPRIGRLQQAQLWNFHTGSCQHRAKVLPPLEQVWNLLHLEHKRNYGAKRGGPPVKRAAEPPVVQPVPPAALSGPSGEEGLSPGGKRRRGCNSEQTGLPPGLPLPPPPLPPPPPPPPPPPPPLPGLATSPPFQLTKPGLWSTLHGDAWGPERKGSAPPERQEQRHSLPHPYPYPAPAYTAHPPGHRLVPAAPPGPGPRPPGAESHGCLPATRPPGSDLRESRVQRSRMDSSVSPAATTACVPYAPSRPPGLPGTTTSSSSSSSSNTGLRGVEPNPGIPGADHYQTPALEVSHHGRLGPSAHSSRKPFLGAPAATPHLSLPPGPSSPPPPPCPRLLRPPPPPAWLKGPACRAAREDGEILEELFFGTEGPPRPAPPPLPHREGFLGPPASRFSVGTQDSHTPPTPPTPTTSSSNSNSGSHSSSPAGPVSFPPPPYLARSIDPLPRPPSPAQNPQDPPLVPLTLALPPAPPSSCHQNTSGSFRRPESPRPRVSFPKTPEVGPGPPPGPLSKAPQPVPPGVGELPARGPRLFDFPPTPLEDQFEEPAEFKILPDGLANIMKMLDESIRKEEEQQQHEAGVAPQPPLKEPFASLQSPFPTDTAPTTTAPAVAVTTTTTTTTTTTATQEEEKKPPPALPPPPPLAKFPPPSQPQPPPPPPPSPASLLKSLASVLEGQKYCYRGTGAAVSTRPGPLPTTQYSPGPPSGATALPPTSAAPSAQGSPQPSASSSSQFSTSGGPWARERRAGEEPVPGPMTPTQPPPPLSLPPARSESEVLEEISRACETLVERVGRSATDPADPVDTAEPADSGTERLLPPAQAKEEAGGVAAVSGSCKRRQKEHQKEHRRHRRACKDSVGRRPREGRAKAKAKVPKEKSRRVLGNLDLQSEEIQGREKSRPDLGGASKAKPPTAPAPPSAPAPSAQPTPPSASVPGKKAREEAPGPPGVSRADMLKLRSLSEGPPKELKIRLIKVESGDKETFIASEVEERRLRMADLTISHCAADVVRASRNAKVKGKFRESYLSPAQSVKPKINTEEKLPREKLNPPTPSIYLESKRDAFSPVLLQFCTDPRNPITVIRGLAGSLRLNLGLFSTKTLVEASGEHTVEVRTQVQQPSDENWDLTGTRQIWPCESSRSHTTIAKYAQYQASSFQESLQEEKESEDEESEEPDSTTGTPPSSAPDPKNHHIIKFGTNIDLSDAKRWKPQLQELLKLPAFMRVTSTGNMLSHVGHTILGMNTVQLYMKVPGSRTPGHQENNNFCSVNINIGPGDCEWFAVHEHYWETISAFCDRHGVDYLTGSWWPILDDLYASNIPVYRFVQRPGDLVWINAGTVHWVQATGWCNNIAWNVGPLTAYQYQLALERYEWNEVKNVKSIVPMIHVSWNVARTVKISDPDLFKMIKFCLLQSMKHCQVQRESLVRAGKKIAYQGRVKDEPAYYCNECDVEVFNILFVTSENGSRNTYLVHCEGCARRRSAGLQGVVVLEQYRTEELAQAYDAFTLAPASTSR
KDM5C, sequence (P41229 whole entry): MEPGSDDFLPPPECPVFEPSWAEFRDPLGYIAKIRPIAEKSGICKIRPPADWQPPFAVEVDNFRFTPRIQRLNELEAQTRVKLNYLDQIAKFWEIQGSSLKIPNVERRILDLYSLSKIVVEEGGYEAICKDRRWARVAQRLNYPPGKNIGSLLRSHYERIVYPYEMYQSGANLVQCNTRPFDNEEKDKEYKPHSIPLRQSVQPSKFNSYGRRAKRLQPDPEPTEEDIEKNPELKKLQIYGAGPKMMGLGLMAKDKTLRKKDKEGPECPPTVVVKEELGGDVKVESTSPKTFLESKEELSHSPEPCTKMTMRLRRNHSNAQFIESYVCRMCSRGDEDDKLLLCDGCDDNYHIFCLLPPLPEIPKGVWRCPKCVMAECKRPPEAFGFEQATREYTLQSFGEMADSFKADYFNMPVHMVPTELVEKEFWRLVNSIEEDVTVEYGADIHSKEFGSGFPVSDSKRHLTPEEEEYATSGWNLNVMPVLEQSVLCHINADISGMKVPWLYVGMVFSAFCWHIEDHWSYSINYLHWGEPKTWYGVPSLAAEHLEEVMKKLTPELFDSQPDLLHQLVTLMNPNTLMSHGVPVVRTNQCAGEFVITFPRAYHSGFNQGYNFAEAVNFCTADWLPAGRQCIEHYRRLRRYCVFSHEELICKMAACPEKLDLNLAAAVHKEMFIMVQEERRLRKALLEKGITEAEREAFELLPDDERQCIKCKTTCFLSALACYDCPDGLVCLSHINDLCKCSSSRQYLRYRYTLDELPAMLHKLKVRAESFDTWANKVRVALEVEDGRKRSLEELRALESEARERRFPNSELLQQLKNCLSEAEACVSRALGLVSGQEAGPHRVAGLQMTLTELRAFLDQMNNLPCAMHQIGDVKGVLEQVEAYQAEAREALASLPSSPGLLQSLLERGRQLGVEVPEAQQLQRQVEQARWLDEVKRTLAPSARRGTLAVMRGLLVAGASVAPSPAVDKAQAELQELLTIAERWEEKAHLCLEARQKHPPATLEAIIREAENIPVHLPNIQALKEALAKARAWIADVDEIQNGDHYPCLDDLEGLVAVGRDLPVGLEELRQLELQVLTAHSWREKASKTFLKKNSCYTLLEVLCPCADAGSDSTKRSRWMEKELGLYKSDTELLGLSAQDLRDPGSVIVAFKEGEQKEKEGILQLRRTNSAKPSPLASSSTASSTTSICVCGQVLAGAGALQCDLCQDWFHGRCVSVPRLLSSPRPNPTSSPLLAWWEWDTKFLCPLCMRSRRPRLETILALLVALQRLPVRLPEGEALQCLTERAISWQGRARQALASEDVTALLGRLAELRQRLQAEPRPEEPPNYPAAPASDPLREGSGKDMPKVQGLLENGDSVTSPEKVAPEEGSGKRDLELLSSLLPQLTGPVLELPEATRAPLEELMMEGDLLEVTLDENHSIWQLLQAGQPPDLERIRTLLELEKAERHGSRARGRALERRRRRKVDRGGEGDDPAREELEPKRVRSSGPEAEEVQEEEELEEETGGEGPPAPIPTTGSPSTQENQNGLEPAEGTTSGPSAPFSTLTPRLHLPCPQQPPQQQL

Structure (SMILES): COc1cccc2c1C(=O)c1c(O)c3c(c(O)c1C2=O)C[C@@](O)(C(=O)CO)C[C@@H]3O[C@H]1C[C@H](N)[C@H](O)[C@H](C)O1 [Doxorubicin, doxorubicin]
Cell death in triple staining (healthy, apoptotic, necrotic), in words (HeLa cells [1]): predominant apoptotic staining
Effect on H3K4me3 levels, in words (H3K4me3 mark): no effect on this mark
Effect on H3K27me3 mark, in words (H3K27me3 mark): profound effect
Effect on H3K9me2 levels, in words (H3K9me2 mark): some increase
Effect on H3K36me2 levels, in words (H3K36me2 mark): only marginally affected
Toxicity as measured by cell count (number of cells, DAPI staining) (HeLa cells [2]): induced cell death

Effect on H3K4me3 mark in KDM5B IF assay, in words (KDM5B [4]): increase of the H3K4me3 mark
Structure (SMILES): CCOC(=O)CCNc1cc(N2CCc3ccccc3CC2)nc(-c2ccccn2)n1 [GSK-J4]
Toxicity as measured by cell count (number of cells, DAPI staining) (HeLa cells [3]): only minor toxicity at the highest concentrations used

Structure (SMILES): O=C(O)c1ccc(O)c2ncccc12 [IOX1]
Cell death in triple staining (healthy, apoptotic, necrotic), in words (HeLa cells [1]; [7]): little to no cell toxicity
IC50 (KDM5B [5]): 20.6 ± 9 µM
Toxicity as measured by cell count (number of cells, DAPI staining) (HeLa cells [2]): only observed cell toxicity at high concentrations
EC50 (KDM5B [4]): 62 µM
Effect on H3K4me3 mark in KDM5B IF assay, in words (KDM5B [4]): dose-dependent increase of H3K4me3

IC50 (KDM4C): > 100 µM
IC50 (KDM5B [6]; [8]): > 100 µM
IC50 (KDM6B): > 100 µM
Structure (SMILES): CC(=O)O[C@H]1C(=O)[C@@]2(C)[C@H]([C@H](OC(=O)c3ccccc3)[C@]3(O)C[C@H](OC(=O)[C@H](O)[C@@H](NC(=O)c4ccccc4)c4ccccc4)C(C)=C1C3(C)C)[C@]1(OC(C)=O)CO[C@@H]1C[C@@H]2O [Paclitaxel, paclitaxel]
Cell death in triple staining (healthy, apoptotic, necrotic), in words (HeLa cells [1]): predominant apoptotic staining
Effect on H3K4me3 levels, in words (H3K4me3 mark): dose-dependent increase of H3K4me3
Effect on H3K27me3 mark, in words (H3K27me3 mark): profound effect
Effect on H3K9me2 levels, in words (H3K9me2 mark): not affected
Effect on H3K36me2 levels, in words (H3K36me2 mark): only marginally affected
Toxicity as measured by cell count (number of cells, DAPI staining) (HeLa cells [2]): induced cell death

IC50 (KDM3A): > 10 µM
IC50 (KDM5B [6]; AlphaScreen, IC50 ± SD (number of replicates), read-out: KDM5B IC50, in vitro): 7.01 µM
IC50 (KDM5C): > 10 µM
EC50 (KDM5B [4]): > 100 µM
Structure (SMILES): Clc1ccc(N/N=C(/c2ccccc2)c2ccccn2)nc1 [JIB-04 Z]

Structure (SMILES): CCOC(=O)CCNc1cc(N2CCc3ccccc3CC2)nc(-c2cccnc2)n1 [GSK-J5]
necrotic cells (HeLa cells [1]; HeLa cells, 50 µM): about 60%
Toxicity as measured by cell count (number of cells, DAPI staining) (HeLa cells [2]): only minor toxicity at the highest concentrations used

Structure (SMILES): CN[C@@H]1C[C@H]2O[C@@](C)([C@@H]1OC)n1c3ccccc3c3c4c(c5c6ccccc6n2c5c31)C(=O)NC4 [Staurosporine, staurosporine]
IC50 (KDM4C): > 100 µM
IC50 (KDM5B [6]; [8]): > 100 µM
IC50 (KDM6B): > 100 µM
Cell death in triple staining (healthy, apoptotic, necrotic), in words (HeLa cells [1]; [7]): predominant apoptotic staining
